Reference: PMC6009943, “One-pot three-component synthesis of novel spirooxindoles with potential cytotoxic activity against triple-negative breast cancer MDA-MB-231 cells” (Journal of Enzyme Inhibition and Medicinal Chemistry, 2017)
Read-outs that look alike come from different tables or passages of the source.

Key:
[1] = test system: MDA-MB-231 cells; experiment: In vitro anti-proliferative activity assay (MTT); format: cell-based; conditions: Homo sapiens, 48 h incubation
Experimental: Cells lines were maintained as monolayers in Dulbecco’s Modified Eagle’s Medium (DMEM) supplemented with 10% FBS, 2 mM L-glutamine, 100 U/ml penicillin and 100 µg/ml streptomycin sulfate. Cells were sub-cultured with trypsine/EDTA solution, counted with haemocytometer and plated onto 96-well plates (5000 cells/well) and left overnight to form a semi-confluent monolayer. […] DMSO (100 µl/well) was added to dissolve the formazan crystals with shaking for 10 min after which the absorbance was read at 590 nm against no cell blanks on a FLuo Star Optima microplate reader (BMG Technologies, Germany). Cell proliferation was calculated comparing the OD values of the DMSO control wells and those of the samples represented as % proliferation to the control.
The in vitro anti-proliferative activity of the newly synthesized spirooxindoles 6a–p was examined against TNBC MDA-MB-231 cells. This assay was performed utilizing the 3–(4,5-dimethylthiazol-2-yl)-2,5-diphenyltetrazolium bromide (MTT) colorimetric assay as described by Mosmann[18]. Adriamycin was included in this assay as a reference drug.

[2] = biological target: T1, EGFR (Homo sapiens, UniProt P00533); experiment: EGFR kinase ELISA assay; format: biochemical; conditions: colorimetric ELISA, mean ± SD of three separate experiments
T1 construct: purchased BPS Biosciences 40321
T1 sequence (P00533 25-1210): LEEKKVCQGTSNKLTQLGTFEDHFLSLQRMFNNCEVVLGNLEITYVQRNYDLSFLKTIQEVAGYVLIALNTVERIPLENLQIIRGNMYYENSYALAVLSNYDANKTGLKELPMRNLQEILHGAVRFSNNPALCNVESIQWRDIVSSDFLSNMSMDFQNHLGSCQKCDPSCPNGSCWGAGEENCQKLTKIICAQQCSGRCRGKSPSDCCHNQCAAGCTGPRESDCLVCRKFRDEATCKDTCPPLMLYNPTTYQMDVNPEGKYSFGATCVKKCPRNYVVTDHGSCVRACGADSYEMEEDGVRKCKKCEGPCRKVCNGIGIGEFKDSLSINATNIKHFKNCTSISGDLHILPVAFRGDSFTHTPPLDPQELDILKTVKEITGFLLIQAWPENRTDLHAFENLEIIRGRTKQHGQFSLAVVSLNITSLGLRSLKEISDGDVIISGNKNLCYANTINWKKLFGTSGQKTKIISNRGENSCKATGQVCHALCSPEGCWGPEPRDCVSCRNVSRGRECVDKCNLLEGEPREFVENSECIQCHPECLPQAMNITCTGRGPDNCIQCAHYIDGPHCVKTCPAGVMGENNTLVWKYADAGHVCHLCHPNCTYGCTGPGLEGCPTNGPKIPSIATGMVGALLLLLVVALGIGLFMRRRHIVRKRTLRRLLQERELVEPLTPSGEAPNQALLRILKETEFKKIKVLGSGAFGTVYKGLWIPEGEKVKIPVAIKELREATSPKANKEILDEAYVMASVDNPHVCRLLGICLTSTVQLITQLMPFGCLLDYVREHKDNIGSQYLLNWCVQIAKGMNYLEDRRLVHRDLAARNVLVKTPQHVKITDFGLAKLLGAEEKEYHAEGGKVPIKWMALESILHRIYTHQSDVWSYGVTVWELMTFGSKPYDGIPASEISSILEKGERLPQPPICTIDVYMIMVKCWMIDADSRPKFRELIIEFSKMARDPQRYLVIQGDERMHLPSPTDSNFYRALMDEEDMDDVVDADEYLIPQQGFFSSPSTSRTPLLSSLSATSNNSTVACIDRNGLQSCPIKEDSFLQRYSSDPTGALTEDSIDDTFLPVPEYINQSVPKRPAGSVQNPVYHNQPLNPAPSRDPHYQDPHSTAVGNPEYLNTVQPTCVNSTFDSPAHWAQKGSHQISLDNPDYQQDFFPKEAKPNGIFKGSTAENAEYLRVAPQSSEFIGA
Experimental: Percent inhibition was calculated by the comparison of compounds treated to control incubations.
Erlotinib, a clinically used EGFR inhibitor, was taken as the reference drug.

[3] = test system: WI-38 cells; experiment: In vitro cytotoxic activity, WI-38 cells (MTT); format: cell-based, human
Experimental: WI-38 cells ([…]), were obtained from American Type Culture Collection. The cells were propagated in DMEM supplemented with 10% heat-inactivated FBS (Hyclone), 10 μg/ml of insulin (Sigma), and 1% penicillin-streptomycin. All of the other chemicals and reagents were from Sigma, or Invitrogen. Cytotoxicity was determined using MTT assay following a reported procedure.

[4] = test system: MDA-MB-231 cancer cell line; conditions: cited from earlier work

SMILES | IC50 [1] | melting point | further results
COc1cccc2c1C(=O)c1c(O)c3c(c(O)c1C2=O)C[C@@](O)(C(=O)CO)C[C@@H]3O[C@H]1C[C@H](N)[C@H](O)[C@H](C)O1 [Adriamycin, reference compound] | 0.12 µM |  | 
Cc1ccc(C2=C(C#N)C3(C(=O)Nc4ccccc43)c3c(-c4cccs4)nn(-c4ccccc4)c3N2)cc1 (stereo not drawn) [Compound 6b, 2-Oxo-1'-phenyl-3'-(thiophen-2-yl)-6'-(p-tolyl)-1',7'-dihydrospiro[indoline-3,4'-pyrazolo[3,4-b]pyridine]-5'-carbonitrile] | 29.7 µM | 285 to 287 °C | 
COc1ccc(C2=C(C#N)C3(C(=O)Nc4ccccc43)c3c(-c4cccs4)nn(-c4ccccc4)c3N2)cc1 (stereo not drawn) [Compound 6c, 6'-(4-Methoxyphenyl)-2-oxo-1'-phenyl-3'-(thiophen-2-yl)-1',7'-dihydrospiro[indoline-3,4'-pyrazolo[3,4-b]pyridine]-5'-carbonitrile] | 37.8 µM | 296 to 298 °C | 
N#CC1=C(c2ccc(Cl)cc2)Nc2c(c(-c3cccs3)nn2-c2ccccc2)C12C(=O)Nc1ccccc12 (stereo not drawn) [Compound 6d, 6'-(4-Chlorophenyl)-2-oxo-1'-phenyl-3'-(thiophen-2-yl)-1',7'-dihydrospiro[indoline-3,4'-pyrazolo[3,4-b]pyridine]-5'-carbonitrile] | 12 µM | 279 to 281 °C | IC50 [2]: 0.36 ± 0.02 µM
Cc1ccc(C2=C(C#N)C3(C(=O)Nc4ccc(Cl)cc43)c3c(-c4cccs4)nn(-c4ccccc4)c3N2)cc1 (stereo not drawn) [Compound 6f, 5-Chloro-2-oxo-1'-phenyl-3'-(thiophen-2-yl)-6'-(p-tolyl)-1',7'-dihydrospiro[indoline-3,4'-pyrazolo[3,4-b]pyridine]-5'-carbonitrile] | 18.2 µM | 286 to 288 °C | 
COc1ccc(C2=C(C#N)C3(C(=O)Nc4ccc(Cl)cc43)c3c(-c4cccs4)nn(-c4ccccc4)c3N2)cc1 (stereo not drawn) [Compound 6g, 5-Chloro-6'-(4-methoxyphenyl)-2-oxo-1'-phenyl-3'-(thiophen-2-yl)-1',7'-dihydrospiro[indoline-3,4'-pyrazolo[3,4-b]pyridine]-5'-carbonitrile] | 24.1 µM | > 300 °C | 
N#CC1=C(c2ccc(Cl)cc2)Nc2c(c(-c3cccs3)nn2-c2ccccc2)C12C(=O)Nc1ccc(Cl)cc12 (stereo not drawn) [Compound 6h, 5-Chloro-6'-(4-chlorophenyl)-2-oxo-1'-phenyl-3'-(thiophen-2-yl)-1',7'-dihydrospiro[indoline-3,4'-pyrazolo[3,4-b]pyridine]-5'-carbonitrile] | 16.6 µM | 281 to 283 °C | 
N#CC1=C(c2ccccc2)Nc2c(c(-c3cccs3)nn2-c2ccccc2)C12C(=O)Nc1ccc(Br)cc12 (stereo not drawn) [Compound 6i, 5-Bromo-2-oxo-1',6'-diphenyl-3'-(thiophen-2-yl)-1',7'-dihydrospiro[indoline-3,4'-pyrazolo[3,4-b]pyridine]-5'-carbonitrile] | 6.7 µM |  | IC50 ([3]; WI-38, MTT assay, human normal lung fibroblast cell line, read-out: IC50 (µM) WI-38): 39.3 µM; Selectivity Index ([3]; WI-38 versus MDA-MB-231): 5.9; IC50 [2]: 0.12 ± 0.01 µM
Cc1ccc(C2=C(C#N)C3(C(=O)Nc4ccc(Br)cc43)c3c(-c4cccs4)nn(-c4ccccc4)c3N2)cc1 (stereo not drawn) [Compound 6j, 5-Bromo-2-oxo-1'-phenyl-3'-(thiophen-2-yl)-6'-(p-tolyl)-1',7'-dihydrospiro[indoline-3,4'-pyrazolo[3,4-b]pyridine]-5'-carbonitrile] | 13.5 µM | 282 to 284 °C | IC50 [2]: 0.51 ± 0.04 µM
COc1ccc(C2=C(C#N)C3(C(=O)Nc4ccc(Br)cc43)c3c(-c4cccs4)nn(-c4ccccc4)c3N2)cc1 (stereo not drawn) [Compound 6k, 5-Bromo-6'-(4-methoxyphenyl)-2-oxo-1'-phenyl-3'-(thiophen-2-yl)-1',7'-dihydrospiro[indoline-3,4'-pyrazolo[3,4-b]pyridine]-5'-carbonitrile] | 12.7 µM | > 300 °C | IC50 [2]: 0.31 ± 0.02 µM
N#CC1=C(c2ccc(Cl)cc2)Nc2c(c(-c3cccs3)nn2-c2ccccc2)C12C(=O)Nc1ccc(Br)cc12 (stereo not drawn) [Compound 6l, 5-Bromo-6'-(4-chlorophenyl)-2-oxo-1'-phenyl-3'-(thiophen-2-yl)-1',7'-dihydrospiro[indoline-3,4'-pyrazolo[3,4-b]pyridine]-5'-carbonitrile] | 30.6 µM | 293 to 294 °C | 
COc1ccc2c(c1)C1(C(=O)N2)C(C#N)=C(c2ccccc2)Nc2c1c(-c1cccs1)nn2-c1ccccc1 (stereo not drawn) [Compound 6m, 5-Methoxy-2-oxo-1',6'-diphenyl-3'-(thiophen-2-yl)-1',7'-dihydrospiro[indoline-3,4'-pyrazolo[3,4-b]pyridine]-5'-carbonitrile] | 17.5 µM | 276 to 278 °C | 
COc1ccc2c(c1)C1(C(=O)N2)C(C#N)=C(c2ccc(C)cc2)Nc2c1c(-c1cccs1)nn2-c1ccccc1 (stereo not drawn) [Compound 6n, 5-Methoxy-2-oxo-1'-phenyl-3'-(thiophen-2-yl)-6'-(p-tolyl)-1',7'-dihydrospiro[indoline-3,4'-pyrazolo[3,4-b]pyridine]-5'-carbonitrile] | > 50 µM | 268 to 269 °C | 
COc1ccc(C2=C(C#N)C3(C(=O)Nc4ccc(OC)cc43)c3c(-c4cccs4)nn(-c4ccccc4)c3N2)cc1 (stereo not drawn) [Compound 6o, 5-Methoxy-6'-(4-methoxyphenyl)-2-oxo-1'-phenyl-3'-(thiophen-2-yl)-1',7'-dihydrospiro[indoline-3,4'-pyrazolo[3,4-b]pyridine]-5'-carbonitrile] | > 50 µM | 279 to 281 °C | 
COc1ccc2c(c1)C1(C(=O)N2)C(C#N)=C(c2ccc(Cl)cc2)Nc2c1c(-c1cccs1)nn2-c1ccccc1 (stereo not drawn) [Compound 6p, 6'-(4-Chlorophenyl)-5-methoxy-2-oxo-1'-phenyl-3'-(thiophen-2-yl)-1',7'-dihydrospiro[indoline-3,4'-pyrazolo[3,4-b]pyridine]-5'-carbonitrile] | > 50 µM | 255 to 257 °C | 
CC(C)OC(=O)C1=C(N)OC2=C(C(=O)OC2)C12C(=O)Nc1ccc(Cl)cc12 (stereo not drawn) [compound (i)] |  |  | IC50 ([4]; read-out: IC50, cytotoxic activity against MDA-MB-231): 11 µM
O=C(c1ccc(OCCN2CCCC2)cc1)C1C(c2ccccc2)C2CSC(c3ccccc3)N2C12C(=O)Nc1ccc(Cl)cc12 (stereo not drawn) [compound (iv)] |  |  | IC50 ([4]; reported compound of Figure 1, reference not given, read-out: IC50, cytotoxicity against MDA-MB-231): 4.2 µM
